As a reminder, the IC50 is the concentration at which inhibition is half-maximal. A word on the EC50: it is the concentration that produces a half-maximal response. What is called IC90 is the point of the concentration-response curve where the effect stands at 90%. As usually defined, the EC90 is the point of the concentration-response curve where the effect stands at 90%.

Read-outs that look alike come from different tables or passages of the source. Where only a bound is given, the exact number is not on record here.

One data set deals with DENV4. Description: Antiviral activity against DENV4. The format is cell-based. As to conditions: Dengue Virus 4.
Another data set has as its system EBOV (VP30, Huh). Description: microbe, parasite or virus in culture. In kind it is cell-based, Ebola Virus. As to conditions: for EC50: read-out: EC50, EBOV (VP30, Huh).
Another data set relates to SARS-CoV-2 (Omicron). As to the kind of experiment: microbe, parasite or virus in culture. In kind it is cell-based. As to conditions: Severe acute respiratory syndrome coronavirus 2, Calu-3, read-out: IC50, SARS-CoV-2 (Omicron) (Calu3) #1.
In data set [1] the test system is SARS-CoV-2 (WA-1). Description: microbe, parasite or virus in culture. The format is cell-based. As to conditions: Severe acute respiratory syndrome coronavirus 2, A549, read-out: IC50, SARS-CoV-2 (WA-1) #2.
Another data set has as its system DENV2. As to the kind of experiment: Antiviral activity against DENV2. The format is cell-based. As to conditions: Dengue Virus 2.
A short description of data set [2]: Cytotoxicity (CC50) alongside DENV4 assay.
A short description of data set [3]: in vitro. As to conditions: human.
In data set [4] the test system is SARS-CoV-2 (WA-1). As to the kind of experiment: microbe, parasite or virus in culture. In kind it is cell-based. As to conditions: Severe acute respiratory syndrome coronavirus 2, A549, read-out: IC50, SARS-CoV-2 (WA-1) #1.
Data set [5] is described as follows: Cytotoxicity (CC50) alongside DENV2 assay.
Data set [6] can be described thus: Cytotoxicity (CC50) alongside SARS-CoV-2 WA-1 assay, lab #2. As to conditions: human, A549 cells.
Data set [7] can be described thus: Cytotoxicity (CC50) alongside SARS-CoV-2 WA-1 assay, lab #1. As to conditions: human, A549 cells.
Another data set deals with VEEV. Description: microbe, parasite or virus in culture. In kind it is cell-based. As to conditions: Venezuelan equine encephalitis virus, read-out: EC50, VEEV.
Data set [8] in a line: in vitro.
Another data set has as its system SARS-CoV-2 (A549-hACE2). Description: microbe, parasite or virus in culture. The format is cell-based.
For the next data set, the system named is CHIKV. As to the kind of experiment: Antiviral activity against CHIKV. The format is cell-based. As to conditions: Chikungunya virus.
Data set [9] can be described thus: Cytotoxicity (CC50) alongside SARS-CoV-2 (A549-hACE2) assay. As to conditions: human, A549-hACE2 cells.
The nature of data set [10]: in vitro. This is another data set of the same source.
The test system of a further data set is OC43. Description: Antiviral activity against OC43 (Huh 7.5 IFITM3). As to conditions: Betacoronavirus 1, OC43, Huh7.5. In kind it is cell-based, human coronavirus.
The mark [11] stands for this setting: Zaire ebolavirus, Huh-7, read-out: IC50, EBOV (VP30, Huh).

On to `CCC(CC)COC(=O)[C@H](C)N[P@@](=O)(Oc1ccccc1)OC1[C@@H](CO[P@@](=O)(N[C@@H](C)C(=O)OCC(CC)CC)Oc2ccccc2)O[C@@H](n2cnc3sc4c(N)nc(N)nc4c32)C1(C)F` (stereo partly shown) [CEM-053], for which the IC50 in the data set with DENV4 worked out at 2.9 µM; in the data set with SARS-CoV-2 (Omicron), 21.9 µM; in the data set with SARS-CoV-2 (WA-1) [1] it was 2.95 µM; in the data set on DENV2, 18 µM. Besides, the EC50 is 4.5 µM with EBOV (VP30, Huh) (Zaire ebolavirus) and 6.7 µM with EBOV (VP30, Huh). The compound also showed a CC50 in [2] above 50 µM.

Consider `CC(C)OC(=O)[C@H](C)N[P@](=O)(OC[C@H]1O[C@@H](n2cnc3sc4c(N)ncnc4c32)C(O)C1O)Oc1ccccc1` (stereo partly shown) [CEM-012], for which the IC50 in the data set with EBOV (VP30, Huh) (setting [11]) was determined as 49.3 µM. Moreover, the CC50 in “in vitro [3]” amounted to 17.7 µM.

Take `COc1nc(OC)c2sc3ncn([C@@H]4O[C@H](CO)C(O)C4O)c3c2n1` (stereo partly drawn) [CEM-028, 1-[(5,7-dimethoxyimidazo-[4′,5′:4,5]thieno[3,2-d]pyrimidin-3-yl)]-β-D-ribofuranose-2,3,5-Triol]: the concentration for half-maximal inhibition (IC50) with EBOV (VP30, Huh) (setting [11]) was 48 µM. This compound also gave a CC50 in “in vitro [3]” of 138 µM.

As for `CC(C)OC(=O)[C@H](C)N[P@](=O)(OC[C@H]1O[C@@H](n2cnc3sc4c(N)nc(N)nc4c32)C(C)(F)C1OC(=O)C(C)C)Oc1ccccc1` (stereo partly shown) [CEM-054], the half-maximal inhibitory concentration (IC50) in the data set with DENV4 worked out at 10 µM; in the data set on SARS-CoV-2 (Omicron), 37.9 µM; in the data set with DENV2 it was 22 µM. Also, the EC50 in the data set on EBOV (VP30, Huh) (Zaire ebolavirus) is 10.8 µM; with EBOV (VP30, Huh), 11.2 µM. The CC50 in [2] was found to be 32 µM.

As to `CCC(CC)COC(=O)[C@H](C)N[P@](=O)(OC[C@H]1O[C@@H](n2cnc3sc4c(N)nc(N)nc4c32)C(O)C1O)Oc1ccccc1` (stereo partly shown) [CEM-056], the EC50 in the data set on EBOV (VP30, Huh) (Zaire ebolavirus) was 22.1 µM. Besides, the IC50 stood at 59.3 µM in the data set on SARS-CoV-2 (Omicron) and 44.7 µM with SARS-CoV-2 (WA-1) [1].

As for `CC1(F)C(O)[C@@H](CO)O[C@H]1n1cnc2sc3c(N)nc(N)nc3c21` (stereo in doubt) [CEM-024, 2′-deoxy-2′-fluoro-2′-C-methyl-1′-[(5,7-diaminoimidazo-[4′,5′:4,5]thieno[3,2-d]pyrimidin-3-yl)]-β-D-ribofuranose], the IC50 with EBOV (VP30, Huh) (setting [11]) is 31 µM. In “in vitro [3]”, this compound came in with a CC50 of 11 µM.

`Nc1nc(N)c2sc3ncn([C@@H]4O[C@H](CO)C(O)C4O)c3c2n1` (stereo partly drawn) [CEM-007, 1-[(5,7-diaminoimidazo-[4′,5′:4,5]thieno[3,2-d]pyrimidin-3-yl)]-β-D-ribofuranose-2,3,5-Triol]: the IC50 was 64 µM with DENV4; 15.2 µM in the data set on EBOV (VP30, Huh) (setting [11]); 11.7 µM with EBOV (VP30, Huh) (read-out: IC50, EBOV (VP30, Huh)); 56.4 µM in the data set on SARS-CoV-2 (Omicron); 45 µM in the data set on DENV2. For the same compound, the EC50 with EBOV (VP30, Huh) (Zaire ebolavirus) is 40.5 µM. In addition, in the data set “in vitro [3]”, the CC50 was above 100 µM.

Turning to `COc1nc(OC)c2sc3ncn([C@@H]4O[C@H](CO[P@@](=O)(N[C@@H](C)C(=O)OC(C)C)Oc5ccccc5)C(O)C4O)c3c2n1` (stereo partly shown) [CEM-036], the concentration for half-maximal inhibition (IC50) with DENV4 was 34 µM; in the data set on SARS-CoV-2 (WA-1) [4] it was 21.6 µM; in the data set on EBOV (VP30, Huh) (setting [11]), 37.7 µM; in the data set on SARS-CoV-2 (Omicron), above 100 µM; in the data set with SARS-CoV-2 (WA-1) [1] it was 48.4 µM; with DENV2, 24 µM. Also, the CC50 in [5], in [6] and in data set [7] was above 100 µM throughout.

Turning to `CCC(CC)COC(=O)[C@H](C)N[P@](=O)(OC[C@H]1O[C@@H](n2cnc3sc4c(N)nc(N)nc4c32)[C@](C)(F)C1OC(=O)C(C)C)Oc1ccccc1` (stereo partly shown) [CEM-055], the EC50 is 6.2 µM in the data set with EBOV (VP30, Huh) (Zaire ebolavirus) and 10.1 µM with EBOV (VP30, Huh). The results for the IC50 in the data set on SARS-CoV-2 (Omicron) and in the data set on SARS-CoV-2 (WA-1) [1] were 19.6 µM and 11.9 µM, respectively.

With `Nc1nc2c(sc3ncn([C@@H]4O[C@H](CO)C(O)C4O)c32)c(=O)[nH]1` (stereo partly drawn) [CEM-021, 1-[(5-Aminoimidazo[4′,5′:4,5]thieno[3,2-d]pyrimidin-3-yl-7-one)]-β-D-ribofuranose 2,3,5-Triol], the IC50 with DENV4 worked out at 100 µM; in the data set on EBOV (VP30, Huh) (setting [11]) it was 43.6 µM; with DENV2 it was 73.5 µM. Moreover, the CC50 was above 100 µM in data set [5] and 60.5 µM in “in vitro [3]”.

Regarding `CC(C)OC(=O)[C@H](C)N[P@@](=O)(Oc1ccccc1)OC1[C@@H](CO[P@@](=O)(N[C@@H](C)C(=O)OC(C)C)Oc2ccccc2)O[C@@H](n2cnc3sc4c(N)nc(N)nc4c32)C1(C)F` (stereo partly shown) [CEM-042], the IC50 in the data set on DENV4 came to 7.5 µM; in the data set on SARS-CoV-2 (WA-1) [4] it was 3.58 µM; in the data set with EBOV (VP30, Huh) (setting [11]) it was 11.6 µM; in the data set with SARS-CoV-2 (Omicron), 7.36 µM; with SARS-CoV-2 (WA-1) [1], 5.89 µM; in the data set with DENV2, 3.5 µM. Moreover, the IC90 in the data set on DENV4 came to 25 µM; with DENV2, 6.8 µM. Further, the EC50 in the data set with VEEV was determined as 86.7 µM; with SARS-CoV-2 (A549-hACE2) (Severe acute respiratory syndrome coronavirus 2, read-out: EC50, SARS-CoV-2 (A549-hACE2)), 5.89 µM; in the data set with CHIKV, 24.6 µM; in the data set on OC43 it was 1.5 µM. In addition, the CC50 (in data set [5]; in “in vitro [8]”; in data set [6]; in data set [7]; in data set [9]; in data set [2]) was above 100 µM in each case. In the data set “in vitro [10]”, this compound yielded a CC50 above 100 µM. The EC90 with SARS-CoV-2 (A549-hACE2) (Severe acute respiratory syndrome coronavirus 2, read-out: EC90, SARS-CoV-2 (A549-hACE2)) stood at 6.5 µM.

For the compound `CC(C)OC(=O)[C@H](C)N[P@](=O)(OC[C@H]1O[C@@H](n2cnc3sc(C(N)=O)c(N)c32)C(O)C1O)Oc1ccccc1` (stereo partly shown) [CEM-015], the IC50 in the data set with CHIKV turned out to be 93.9 µM.

For `CCC(CC)COC(=O)[C@H](C)N[P@](=O)(OC[C@H]1O[C@@H](n2cnc3sc4c(N)nc(N)nc4c32)C(C)(F)C1O)Oc1ccccc1` (stereo partly shown) [CEM-052], the IC50 with DENV4 worked out at 16 µM; with SARS-CoV-2 (Omicron) it was 20.6 µM; in the data set on DENV2, 19 µM. The EC50 was determined as 9.1 µM with EBOV (VP30, Huh) (Zaire ebolavirus) and 11.4 µM with EBOV (VP30, Huh). For the same compound, the CC50 in [2] came to 33 µM.

In turn, `CC(C)OC(=O)[C@H](C)N[P@](=O)(OC[C@H]1O[C@@H](n2cnc3sc4c(=O)[nH]cnc4c32)C(O)C1O)Oc1ccccc1` (stereo in doubt) [CEM-010] yielded an IC50 in the data set with CHIKV of 82.5 µM. In the data set “in vitro [10]”, the CC50 was above 100 µM.

The record behind these values is patent US20260184738A1 (priority 2023, published 2026).
